Tests used:
Format in all cases: cell-based
[1] = test system: TNFα release from LPS-stimulated THP-1 cells (iRhom2/ADAM17-dependent); test: Primary screen (Example 1b): LPS-stimulated TNFα release from THP-1 cells, HTRF; conditions: Homo sapiens, overnight pre-incubation, LPS 100 ng/mL, 3 h, normalized against 10 μM Batimastat
Description: (§1) Two separate screens to identify novel small molecule inhibitors of iRhom2/ADAM17 activity were developed. […] Therefore, the primary screen for small molecule inhibitors of iRhom2/ADAM17 was a screen for inhibitors that blocked the release of TNFα from LPS-stimulated THP-1 human myeloid cells, a process that depends on iRhom2 and ADAM17. Since the release of TNFα from THP-1 cells can be blocked at many stages of the LPS/TLR4/iRhom2/ADAM17 pathway, a secondary screen was performed for another iRhom2/ADAM17 selective substrate, Kit-ligand 2 (KL-2) (Maretzky T et al. (July 2013), “iRhom2 controls the substrate selectivity of stimulated ADAM17-dependent ectodomain shedding”, PNAS 110(28): 11433-11438) in a different human cell type, human embryonic kidney cells (HEK 293).
THP-1 cells were plated in low volume 384 wells (10,000 cells per well in 12.6 μL RPMI medium) together with inhibitors or 10 μM BB94 and incubated over night. The next day, TNFα shedding was initiated by stimulation of THP-1 cells with 100 ng/mL LPS (1.8 μL of an 800 ng/mL LPS stock) for 3 hrs at 37° C. The extent of released TNFα was detected with the corresponding HTRF antibodies labeled with europium cryptate (donor) and d2 (acceptor). The HTRF signal was generated by proximity of europium cryptate and d2. All detection reagents were purchased from Cisbio. TNFα detection was performed according to the manufacturer's protocol (Product Insert for Cisbio TNFα (h) Kit Part #62HTNFAPEG & 62HTNFAPEH; https://www.cisbio.com/media/asset/c/i/cisbio_dd_pi_62htnfapeg-62htnfapeh.pdf, accessed Sep. 28, 2020).
Low volume 384 well plates were pre-coated with small molecule library compounds for a final concentration of 20 μM in a 15 μL reaction, or 0.75 μL of 200 μM stock of BB94 in 5% DMSO (final concentration 0.25%). 12.6 μL of cell suspension [8E5/mL; 10,000 cells/well; culture RPMI medium] and pre-incubated at 37° C., 5% CO2, over night. The next day, 1.8 μL of an 800 ng/mL LPS stock was added [final concentration 100 ng/mL in 15 μL assay] and the cells were incubated at 37° C., 5% CO2, for 3 h. Subsequently, 3 μL of the HTRF-mix [used at 1:3 dilution of cisbio HTRF human TNF] was added and the plates were incubated for an additional 2 hrs at 25° C. After an incubation at room temperature for 2 h, the HTRF readout was performed. Then data evaluation for normalization against the 10 μM Batimastat control (=100% […]) was applied.

[2] = test system: PMA-stimulated KL2 release from HEK-293 cells (iRhom2/ADAM17 selective substrate); test: Secondary screen (Example 3b): PMA-stimulated KL2 release from HEK-293 cells, AP readout; conditions: Homo sapiens, HEK293, HEK-293 cells expressing KL2-AP, PMA 100 ng/mL, 2 h, read-out: Secondary Screen IC50 KitL2
Description: as §1
(§2) Expression plasmids for alkaline phosphatase (AP)-fused human KL2 and TGFα had been previously designed and generated through gene synthesis followed by subcloning into the pcDNA3.1(+)/Hygro expression vector. […] Subsequently, DNA amplifications were performed to obtain sufficient amounts of the expression vectors. The quality of DNA and gene sequences were confirmed through restriction digest and Sanger sequencing. In parallel, cell culture of HEK-293 cells was initiated. Master and working cell banks were prepared, scaled up and transfected with the respective constructs by electroporation. During cell culturing, cell density and viability were monitored to ensure optimal conditions for the transfections. After PMA stimulation, AP-coupled KL2 or TGFα were detected by measurement of AP activity in the supernatant.
(§3) After electroporation, cells were further cultured in presence of selection antibiotics, hygromycin B, to generate stably transfected polyclonal cell pools. For both assays, KL2 and TGFα shedding, the respective selected pool turned out to be suitable. Final assay conditions were determined for the selected pools. For all experiments, batimastat (BB94, 10 μM) was used as positive control for full inhibition of KL2 or TGFα shedding.
(§4) The wells of sterile 384-well flat bottom clear plates for KL2-AP assays were coated with 10 μL of 0.1 mg/mL poly-d-lysine for 3-4 hr at 25° C. or overnight at 4° C., then washed 2× with PBS and patted dry. 60 μL of cells (40,000/well) were added to the sterile 384-well plate and incubated in Optimem (with 2% FCS and 1% Pen-strep) overnight at 37° C. (5% CO2). After incubation overnight, 55 μL medium were removed with a BioTek EL406 and 10 μL of prediluted compounds were added to the cells for a final concentration of 20 μM. After incubation for 15 min, 15 μL of PMA (100 ng/mL final conc.) were added. The cells were incubated for 2 h at 37° C. (5% CO2). Then, the plates were centrifuged for 5 min at 1000 rpm and 3 μL of the supernatant was transferred to a fresh 384 well plate and 9 μL of AP Balance Buffer was added per well. 12 μL of pNPP p-nitrophenyl phosphate (final 1 M pNPP) was added. AP reaction was performed for 1 h at 37° C. The reaction was stopped by addition of 12 μL of NaOH (1 M final conc.), the plates were centrifuged to remove air bubbles and the absorbance of pNP was measured at 405 nm.

[3] = test system: PMA-stimulated TGFα release from HEK-293 cells (substrate of iRhom1/ADAM17 and iRhom2/ADAM17); test: Counter screen (Example 4b): PMA-stimulated TGFα release from HEK-293 cells, AP readout; conditions: Homo sapiens, HEK293, HEK-293 cells expressing TGFα-AP, PMA 100 ng/mL, 2 h
Description: A tertiary counterscreen was also performed to monitor the release of TGFα, which is a substrate of iRhom1/ADAM17 and iRhom2/ADAM17, so its release should not be blocked by an iRhom2-selective inhibitor (Maretzky T et al. (July 2013), “iRhom2 controls the substrate selectivity of stimulated ADAM117-dependent ectodomain shedding”, PNAS 110(28): 11433-11438; and Li X et al. (May 2015), “iRhoms 1 and 2 are essential upstream regulators of ADAM17-dependent EGFR signaling”, PNAS 112(19): 6080-6085).
as §2, §3
as §4, with “for TGF-AP” for “for KL2-AP”, “cells (20,000/well)” for “cells (40,000/well)”, “and 12” for “and 3”, “well plate.” for “well plate and 9 μL of AP Balance Buffer was added per well.”

Work on `CC(=O)Oc1ccccc1Cn1c(C)c(C(=O)NCc2cccs2)sc1=O` [Compound 6] yielded an IC50 [1] of 4.86 µM, an IC50 [2] greater than 40 µM and an IC50 [3] greater than 40 µM.

Reference: patent US20260242359A1, “IRHOM2 INHIBITORS AND USES THEREOF” (NEW YORK SOCIETY FOR THE RELIEF OF THE RUPTURED AND …, priority 2023, published 2026)
